Columns and labels:
[1] = tested on: AVEFA; assay: Pre-emergence action at 320 g/ha against AVEFA; assay type: in vivo; details: visual scoring after about 3 weeks vs untreated controls
In short: (§1)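 Percent herbicidal activity was assessed by eye roughly three weeks post-application, comparing with untreated plants. Treatment consisted of applying formulated compound in water plus 0.5% additive to covering soil at 600 l/ha before emergence.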

[2] = tested on: VERPE; assay: Pre-emergence action against VERPE, 1280 g/ha; assay type: in vivo, Veronica persica; details: scored visually after about 3 weeks vs untreated controls (100% = plants have died)
In short: (§2)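 Visual percent-effect ratings (0% = like control, 100% = plants dead) were taken about 3 weeks after pre-emergence soil-surface application of WP/EC aqueous formulations with 0.5% additive, 600 L water/ha. Seeds were sown in sandy loam and grown in the greenhouse.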

[3] = tested on: STEME; assay: Post-emergence action against STEME, 1.28 kg/ha; assay type: in vivo, Stellaria media; details: dosage 1280 g/ha, visual rating about 3 weeks after treatment vs untreated controls (100% = plants died)
In short: (§3)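 Spray at one-leaf stage with WP/EC + 0.5% additive, 600 L water/ha. Greenhouse, optimum conditions, ~3 wk. Visual % control vs untreated; 0 = no effect, 100 = dead.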

[4] = tested on: MATIN; assay: Pre-emergence action against MATIN, 1280 g/ha; assay type: in vivo, Tripleurospermum inodorum (Matricaria inodora); details: scored visually after about 3 weeks vs untreated controls (100% = plants have died)
In short: as §2

[5] = tested on: SETVI; assay: Pre-emergence action against SETVI, 1280 g/ha; assay type: in vivo, Setaria viridis; details: visual scoring after about 3 weeks vs untreated controls, 100% = plants have died, 0% = like control plants
In short: as §2

[6] = tested on: ABUTH; assay: Post-emergence action against ABUTH, 1.28 kg/ha; assay type: in vivo, Abutilon theophrasti; details: dosage 1280 g/ha, visual rating about 3 weeks after treatment vs untreated controls (100% = plants died)
In short: as §3

[7] = tested on: AMARE; assay: Pre-emergence action at 320 g/ha against AMARE; assay type: in vivo, Amaranthus retroflexus; details: visual scoring after about 3 weeks vs untreated controls
In short: as §1

[8] = tested on: MATIN; assay: Pre-emergence action at 320 g/ha against MATIN; assay type: in vivo, Tripleurospermum inodorum (Matricaria inodora); details: visual scoring after about 3 weeks vs untreated controls
In short: as §1

[9] = tested on: VIOTR; assay: Pre-emergence action at 320 g/ha against VIOTR; assay type: in vivo, Viola tricolor; details: dosage 320 g/ha
In short: as §1

[10] = tested on: DIGSA; assay: Pre-emergence action at 320 g/ha against DIGSA; assay type: in vivo, Digitaria sanguinalis; details: visual scoring after about 3 weeks vs untreated controls
In short: as §1

[11] = tested on: VERPE; assay: Pre-emergence action at 320 g/ha against VERPE; assay type: in vivo, Veronica persica; details: visual scoring after about 3 weeks vs untreated controls
In short: as §1

[12] = tested on: LOLRI; assay: Pre-emergence action against LOLRI, 1280 g/ha; assay type: in vivo, Lolium rigidum; details: visual scoring after about 3 weeks vs untreated controls, 100% = plants have died, 0% = like control plants
In short: as §2

[13] = tested on: VERPE; assay: Post-emergence action against VERPE, 1.28 kg/ha; assay type: in vivo, Veronica persica; details: dosage 1280 g/ha, visual rating about 3 weeks after treatment vs untreated controls (100% = plants died)
In short: as §3

[14] = tested on: DIGSA; assay: Post-emergence action against DIGSA, 1.28 kg/ha; assay type: in vivo, Digitaria sanguinalis; details: dosage 1280 g/ha, visual rating about 3 weeks after treatment vs untreated controls
In short: as §3

[15] = tested on: POAAN; assay: Post-emergence action against POAAN, 1.28 kg/ha; assay type: in vivo, Poa annua; details: dosage 1280 g/ha, visual rating about 3 weeks after treatment vs untreated controls
In short: as §3

[16] = tested on: STEME; assay: Pre-emergence action against STEME, 1280 g/ha; assay type: in vivo, Stellaria media; details: scored visually after about 3 weeks vs untreated controls (100% = plants have died)
In short: as §2

[17] = tested on: AMARE; assay: Post-emergence action against AMARE, 1.28 kg/ha; assay type: in vivo, Amaranthus retroflexus; details: dosage 1280 g/ha, visual rating about 3 weeks after treatment vs untreated controls (100% = plants died)
In short: as §3

[18] = tested on: POAAN; assay: Pre-emergence action against POAAN, 1280 g/ha; assay type: in vivo, Poa annua; details: visual scoring after about 3 weeks vs untreated controls, 100% = plants have died, 0% = like control plants
In short: as §2

[19] = tested on: DIGSA; assay: Pre-emergence action against DIGSA, 1280 g/ha; assay type: in vivo, Digitaria sanguinalis; details: visual scoring after about 3 weeks vs untreated controls, 100% = plants have died, 0% = like control plants
In short: as §2

[20] = tested on: MATIN; assay: Post-emergence action against MATIN, 1.28 kg/ha; assay type: in vivo, Tripleurospermum inodorum (Matricaria inodora); details: dosage 1280 g/ha, visual rating about 3 weeks after treatment vs untreated controls (100% = plants died)
In short: as §3

[21] = tested on: LOLRI; assay: Pre-emergence action at 320 g/ha against LOLRI; assay type: in vivo, Lolium rigidum; details: visual scoring after about 3 weeks vs untreated controls
In short: as §1

[22] = tested on: ALOMY; assay: Post-emergence action against ALOMY, 1.28 kg/ha; assay type: in vivo, Alopecurus myosuroides; details: dosage 1280 g/ha, visual rating about 3 weeks after treatment vs untreated controls
In short: as §3

[23] = tested on: ECHGC; assay: Pre-emergence action at 320 g/ha against ECHGC; assay type: in vivo, Echinochloa crus-galli; details: visual scoring after about 3 weeks vs untreated controls
Excerpt: b) Seeds of monocotyledonous and dicotyledonous weed plants and crop plants are placed in plastic or organic planting pots and covered with soil. The compounds of the invention, formulated in the form of wettable powders (WP) or as emulsion concentrates (EC), are then applied onto the surface of the covering soil as aqueous suspension or emulsion with addition of 0.5% additive at a water application rate of 600 l/ha (converted). After the treatment, the pots are placed in a greenhouse and kept under good growth conditions for the trial plants. After about 3 weeks, the effect of the preparations is scored visually in comparison with untreated controls as percentages. For example, 100% activity=the plants have died, 0% activity=like control plants. Tables 13 to 26 below show the effects of selected compounds of the general formula (I) on various harmful plants and at an application rate corresponding to 320 g/ha, which were obtained by the experimental procedure mentioned above.

[24] = tested on: SETVI; assay: Pre-emergence action at 320 g/ha against SETVI; assay type: in vivo, Setaria viridis; details: visual scoring after about 3 weeks vs untreated controls
In short: as §1

[25] = tested on: POLCO; assay: Pre-emergence action at 320 g/ha against POLCO; assay type: in vivo, Fallopia convolvulus (Polygonum convolvulus); details: visual scoring after about 3 weeks vs untreated controls
In short: as §1

[26] = tested on: ALOMY; assay: Pre-emergence action at 320 g/ha against ALOMY; assay type: in vivo, Alopecurus myosuroides; details: scored visually after about 3 weeks vs untreated controls (100% = plants have died)
In short: as §1

[27] = tested on: ABUTH; assay: Pre-emergence action against ABUTH, 1280 g/ha; assay type: in vivo, Abutilon theophrasti; details: scored visually after about 3 weeks vs untreated controls (100% = plants have died)
In short: as §2

[28] = tested on: LOLRI; assay: Post-emergence action against LOLRI, 1.28 kg/ha; assay type: in vivo, Lolium rigidum; details: dosage 1280 g/ha, visual rating about 3 weeks after treatment vs untreated controls
In short: as §3

[29] = tested on: KCHSC; assay: Post-emergence action against KCHSC, 1.28 kg/ha; assay type: in vivo, Bassia scoparia; details: dosage 1280 g/ha, visual rating about 3 weeks after treatment vs untreated controls (100% = plants died)
In short: as §3

[30] = tested on: ECHCG; assay: Post-emergence action against ECHCG, 1.28 kg/ha; assay type: in vivo, Echinochloa crus-galli; details: dosage 1280 g/ha, visual rating about 3 weeks after treatment vs untreated controls
In short: as §3

[31] = tested on: SETVI; assay: Post-emergence action against SETVI, 1.28 kg/ha; assay type: in vivo, Setaria viridis; details: dosage 1280 g/ha, visual rating about 3 weeks after treatment vs untreated controls
In short: as §3

[32] = tested on: AMARE; assay: Pre-emergence action against AMARE, 1280 g/ha; assay type: in vivo, Amaranthus retroflexus; details: scored visually after about 3 weeks vs untreated controls (100% = plants have died)
In short: as §2

[33] = tested on: ECHCG; assay: Pre-emergence action against ECHCG, 1280 g/ha; assay type: in vivo, Echinochloa crus-galli; details: visual scoring after about 3 weeks vs untreated controls, 100% = plants have died, 0% = like control plants
In short: as §2

[34] = tested on: KCHSC; assay: Pre-emergence action against KCHSC, 1280 g/ha; assay type: in vivo, Bassia scoparia; details: scored visually after about 3 weeks vs untreated controls (100% = plants have died)
In short: as §2

[35] = tested on: ALOMY; assay: Pre-emergence action against ALOMY, 1280 g/ha; assay type: in vivo, Alopecurus myosuroides; details: visual scoring after about 3 weeks vs untreated controls, 100% = plants have died, 0% = like control plants
In short: as §2

[36] = tested on: ALOMY; assay: Post-emergence action against ALOMY, 320 g/ha; assay type: in vivo, Alopecurus myosuroides; details: dosage 320 g/ha, visual rating about 3 weeks after treatment vs untreated controls (100% = plants died)
Excerpt: (§4) Accordingly, the compounds of the invention have good herbicidal action against a broad spectrum of weed grasses and broad-leaved weeds and are therefore suitable for controlling unwanted vegetation by the post-emergence method. • b) Seeds of monocotyledonous and dicotyledonous weeds and crop plants are placed in sandy loam in plastic or organic planting pots, covered with soil and cultivated in a greenhouse under controlled growth conditions. 2 to 3 weeks after sowing, the test plants are treated at the one-leaf stage. The compounds of the invention, formulated in the form of wettable powders (WP) or as emulsion concentrates (EC), are then sprayed onto the green parts of the plants as aqueous suspension or emulsion with addition of 0.5% additive at a water application rate of 600 l/ha (converted). After the test plants have been kept in the greenhouse under optimum growth conditions for about 3 weeks, the activity of the preparations is rated visually in comparison to untreated controls. For example, 100% activity=the plants have died, 0% activity=like control plants. Tables 39 to 49 below show the effects of selected compounds of the general formula (I) according to Tables 1 and 2 on various harmful plants and at an application rate corresponding to 320 g/ha, which were obtained by the experimental procedure mentioned above.

[37] = tested on: SETVI; assay: Post-emergence action at 320 g/ha against SETVI; assay type: in vivo, Setaria viridis; details: visual rating about 3 weeks after treatment vs untreated controls
Excerpt: as §4

[38] = tested on: DIGSA; assay: Post-emergence action at 320 g/ha against DIGSA; assay type: in vivo, Digitaria sanguinalis; details: dosage 320 g/ha, visual rating about 3 weeks after treatment vs untreated controls (100% = plants died)
Excerpt: as §4

SMILES | Pre-emergence action against AVEFA in % [1] [%] | Pre-emergence action against VERPE [2] [%] | Post-emergence action against STEME [3] [%] | Pre-emergence action against MATIN [4] [%] | Pre-emergence action against SETVI [5] [%] | Pre-emergence action against AMARE in % [7] [%] | Pre-emergence action against MATIN in % [8] [%] | Pre-emergence action against VIOTR in % [9] [%] | Pre-emergence action against DIGSA in % [10] [%] | Pre-emergence action against VERPE in % [11] [%] | Pre-emergence action against LOLRI [12] [%] | Post-emergence action against DIGSA [14] [%] | Post-emergence action against POAAN [15] [%] | Pre-emergence action against STEME [16] [%] | Pre-emergence action against POAAN [18] [%] | Pre-emergence action against DIGSA [19] [%] | Post-emergence action against MATIN [20] [%] | Pre-emergence action against LOLRI in % [21] [%] | Pre-emergence action against ECHGC in % [23] [%] | Pre-emergence action against SETVI in % [24] [%] | also measured
O=C(COc1nn(-c2ccccc2F)c(-c2ccc(F)nc2)c1Br)OCCCl [VII-108] | 80 | 100 | 100 | 100 | 100 | 100 | 100 | 100 | 100 | 100 | 100 | 100 | 100 | 100 | 100 | 100 | 100 | 100 | 100 | 100 | Post-emergence action against ABUTH [6]: 90%; Post-emergence action against VERPE [13]: 100%; Post-emergence action against AMARE [17]: 100%; Post-emergence action against ALOMY [22]: 100%; Pre-emergence action against POLCO in % [25]: 100%; Pre-emergence action at 320 g/ha against ALOMY in % [26]: 100%; Pre-emergence action against ABUTH [27]: 90%; Post-emergence action against LOLRI [28]: 100%; Post-emergence action against KCHSC [29]: 90%; Post-emergence action against ECHCG [30]: 100%; Post-emergence action against SETVI [31]: 90%; Pre-emergence action against AMARE [32]: 100%; Pre-emergence action against ECHCG [33]: 100%; Pre-emergence action against KCHSC [34]: 90%; Pre-emergence action against ALOMY [35]: 100%
CC(Oc1nn(-c2ccccc2F)c(-c2ccc(F)nc2)c1I)C(=O)O (stereo not shown) [VII-118] | 100 | 100 | 100 | 100 | 100 | 100 | 90 | 100 | 100 | 90 | 100 | 100 | 100 | 100 | 100 | 100 | 90 | 100 | 90 | 90 | Post-emergence action against ALOMY [36]: 90%; Post-emergence action against SETVI in % [37]: 80%; Pre-emergence action against POLCO in % [25]: 100%; Pre-emergence action at 320 g/ha against ALOMY in % [26]: 100%; Post-emergence action against LOLRI [28]: 100%; Post-emergence action at 320 g/ha against DIGSA in % [38]: 90%; Post-emergence action against KCHSC [29]: 90%; Post-emergence action against ECHCG [30]: 100%; Pre-emergence action against AMARE [32]: 100%; Pre-emergence action against ECHCG [33]: 100%; Pre-emergence action against KCHSC [34]: 100%; Pre-emergence action against ALOMY [35]: 100%

From US12180187B2, “1-phenyl-5-azinylpyrazolyl-3-oxyalkyl acids and their use for controlling unwanted plant growth” (BAYER AKTIENGESELLSCHAFT, priority 2019, dated 2024)
